Experimental data: ChEMBL document CHEMBL1137536, “Dipeptidyl aspartyl fluoromethylketones as potent caspase inhibitors: peptidomimetic replacement of the P(2) amino acid by 2-aminoaryl acids and other non-natural amino acids” (Bioorg Med Chem Lett, 2007)
Blank lines part the entries; values can stand above or below the compound they belong to.

Assays:
[1] = target: T1, Caspase-7 (Homo sapiens, UniProt P55210); assay: Inhibition of human caspase 7
T1 sequence (P55210 whole entry): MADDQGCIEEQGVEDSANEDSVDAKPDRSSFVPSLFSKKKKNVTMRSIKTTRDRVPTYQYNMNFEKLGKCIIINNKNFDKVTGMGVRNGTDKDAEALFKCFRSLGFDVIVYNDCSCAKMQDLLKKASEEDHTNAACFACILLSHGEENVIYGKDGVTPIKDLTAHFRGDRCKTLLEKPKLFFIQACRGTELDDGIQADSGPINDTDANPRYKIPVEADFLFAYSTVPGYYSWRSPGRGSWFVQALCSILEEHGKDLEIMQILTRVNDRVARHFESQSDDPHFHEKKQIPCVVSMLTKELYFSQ

[2] = target: Caspase-8 (Homo sapiens, UniProt Q14790); assay: Inhibition of human caspase 8
Caspase-8, sequence (Q14790 217-374 limits assumed): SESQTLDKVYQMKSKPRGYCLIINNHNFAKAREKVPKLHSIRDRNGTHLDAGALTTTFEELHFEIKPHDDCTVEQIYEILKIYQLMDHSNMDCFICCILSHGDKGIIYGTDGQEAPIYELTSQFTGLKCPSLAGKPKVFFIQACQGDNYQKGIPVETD
Caspase-8, sequence (Q14790 385-479 limits assumed): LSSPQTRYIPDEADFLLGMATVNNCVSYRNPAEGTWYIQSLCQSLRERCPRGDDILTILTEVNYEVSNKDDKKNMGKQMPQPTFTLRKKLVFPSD

[3] = target: T2, Caspase-6 (Homo sapiens, UniProt P55212); assay: Inhibition of human caspase 6
T2 sequence (P55212 whole entry): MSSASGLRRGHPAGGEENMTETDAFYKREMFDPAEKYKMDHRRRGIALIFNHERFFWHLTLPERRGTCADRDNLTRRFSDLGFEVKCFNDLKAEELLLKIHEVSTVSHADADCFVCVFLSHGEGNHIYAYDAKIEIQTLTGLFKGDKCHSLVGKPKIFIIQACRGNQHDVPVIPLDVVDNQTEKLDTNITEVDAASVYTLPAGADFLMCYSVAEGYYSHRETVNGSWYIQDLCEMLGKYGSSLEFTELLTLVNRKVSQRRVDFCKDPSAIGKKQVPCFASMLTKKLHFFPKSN

[4] = target: T3, Caspase-9 (Homo sapiens, UniProt P55211); assay: Inhibition of human caspase 9
T3 sequence (P55211 whole entry): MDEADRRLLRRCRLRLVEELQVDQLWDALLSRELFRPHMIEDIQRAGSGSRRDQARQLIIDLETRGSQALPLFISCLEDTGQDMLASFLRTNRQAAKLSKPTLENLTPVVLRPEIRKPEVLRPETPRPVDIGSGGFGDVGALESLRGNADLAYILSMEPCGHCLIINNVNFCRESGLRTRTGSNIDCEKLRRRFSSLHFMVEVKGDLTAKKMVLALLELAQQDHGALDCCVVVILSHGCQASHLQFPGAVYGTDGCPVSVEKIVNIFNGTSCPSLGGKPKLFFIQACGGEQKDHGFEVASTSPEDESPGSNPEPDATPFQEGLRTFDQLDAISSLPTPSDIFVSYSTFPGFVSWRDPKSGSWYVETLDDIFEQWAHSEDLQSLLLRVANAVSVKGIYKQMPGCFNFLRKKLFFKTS

[5] = target: T4, Caspase-1 (Homo sapiens, UniProt P29466); assay: Inhibition of human caspase 1
T4 sequence (P29466 whole entry): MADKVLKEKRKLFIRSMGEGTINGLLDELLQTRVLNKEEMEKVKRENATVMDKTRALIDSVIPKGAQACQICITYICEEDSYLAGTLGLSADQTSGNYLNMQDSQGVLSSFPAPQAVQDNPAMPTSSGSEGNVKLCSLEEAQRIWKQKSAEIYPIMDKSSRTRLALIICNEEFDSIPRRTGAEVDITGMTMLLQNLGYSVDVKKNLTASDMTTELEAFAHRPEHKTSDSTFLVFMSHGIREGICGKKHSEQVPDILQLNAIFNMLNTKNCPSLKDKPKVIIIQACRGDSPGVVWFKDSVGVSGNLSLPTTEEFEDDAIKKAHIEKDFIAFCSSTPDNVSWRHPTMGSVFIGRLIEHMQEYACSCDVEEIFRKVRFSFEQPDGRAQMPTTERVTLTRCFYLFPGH

[6] = target: T5, Caspase-3 (Homo sapiens, UniProt P42574); assay: Inhibition of human recombinant caspase 3 by fluorometric assay
T5 sequence (P42574 whole entry): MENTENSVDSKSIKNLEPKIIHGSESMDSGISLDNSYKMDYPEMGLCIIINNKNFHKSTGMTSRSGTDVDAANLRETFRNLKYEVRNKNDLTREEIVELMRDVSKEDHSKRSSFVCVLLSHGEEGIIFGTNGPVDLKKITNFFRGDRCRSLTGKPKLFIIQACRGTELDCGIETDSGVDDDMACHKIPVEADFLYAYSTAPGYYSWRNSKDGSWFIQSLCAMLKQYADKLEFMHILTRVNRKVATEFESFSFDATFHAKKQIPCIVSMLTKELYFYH

[7] = test system: HeLa; assay: Inhibition of TNF-alpha-induced apoptosis in HeLa cells assessed as cell protection; conditions: Homo sapiens

IC50 [1]: 11 nM | IC50 [2]: 6 nM | IC50 [3]: 61 nM | IC50 [4]: 6 nM | IC50 [5]: 12 nM | IC50 [6]: 33 nM
SMILES: CC(C)[C@H](NC(=O)OCc1ccccc1)C(=O)Nc1ccccc1C(=O)NC(CC(=O)O)C(=O)CF (stereo not given in full)

IC50 [7]: 4000 nM
SMILES: O=C(O)CC(NC(=O)c1ccccc1NC(=O)OCc1ccccc1)C(=O)CF (stereo not given)

IC50 [7]: > 2000 nM
SMILES: O=C(O)CC(NC(=O)c1sccc1NC(=O)OCc1ccccc1)C(=O)CF (stereo not given)

Continued, compound first:

SMILES: O=C(O)CN(C(=O)CF)C(=O)[C@H]1CCCN1C(=O)OCc1ccccc1
IC50 [7]: > 2000 nM

SMILES: O=C(O)CN(C(=O)CF)C(=O)[C@H]1CCN1C(=O)OCc1ccccc1
IC50 [7]: 1700 nM
